# Results reported in article PMC12597529, “Interaction between W41 of the hepatitis B virus preS1 surface peptide and Y146/F274 of the cellular receptor molecule Na^+/taurocholate co-transporting polypeptide is essential for virus entry” (Molecular Pharmacology, 2025).
# Substitutions are numbered along the chain they refer to. Names and notes keep the numbering of the source. Values joined by “and” are separate entries in the source; they are usually repeats but may differ in a detail not shown here. Identical values can stand only once. Like-named read-outs stand apart in the source and are kept apart here. Ends that are not written are not given here. * marks the point of attachment. Myristoyl = CCCCCCCCCCCCCC(=O)*
# T1: human Na+/taurocholate co-transporting polypeptide, wild type, FLAG-tagged, on NTCPwt-HEK293 cells (human, UniProt Q14973 1-349)
# T1 sequence (looked up): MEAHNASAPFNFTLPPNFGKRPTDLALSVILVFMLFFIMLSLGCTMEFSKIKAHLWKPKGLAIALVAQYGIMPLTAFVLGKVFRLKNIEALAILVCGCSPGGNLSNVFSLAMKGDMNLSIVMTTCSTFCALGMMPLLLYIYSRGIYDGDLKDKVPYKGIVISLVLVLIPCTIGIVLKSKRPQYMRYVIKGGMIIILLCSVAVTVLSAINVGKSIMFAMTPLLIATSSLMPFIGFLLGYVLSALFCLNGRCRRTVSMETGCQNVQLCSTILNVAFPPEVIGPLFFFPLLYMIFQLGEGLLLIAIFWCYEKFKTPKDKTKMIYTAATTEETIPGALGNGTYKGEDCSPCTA
# B1: wild-type myr-preS1 peptide of HBV genotype D (unlabelled) (peptide)
# peptide: GQNLSTSNPLGFFPDHQLDPAFRANTANPDWDFNPNKDTWPDANKVG
# modifications: not fully specified (N-terminus); also: myristoylated (myr-preS1)
# notes: also called myr-preS1 WT; wild-type myr-preS1 peptide (genotype D)
# B2: W41G mutant myr-preS1 peptide of HBV genotype D (peptide)
# peptide: B1 peptide with W40G
# modifications: not fully specified (N-terminus); also: myristoylated (myr-preS1)
# notes: also called myr-preS1-W41G; myr-preS1 W41G peptide; source: bought: ProteoGenix S.A.S
# Columns and labels:
# [1] = test system: NTCP; settings: most of these compounds, cited from earlier work
# Excerpt: The hepatitis B virus (HBV) belongs to the family of Hepadnaviridae. Its DNA genome encodes 3 surface proteins (HBs), namely small HBs, middle HBs, and large HBs.[1] The hepatitis D virus (HDV) is a small negative-sense RNA satellite virus and depends on the HBV envelope for entry into hepatocytes, assembly, and secretion of newly formed virions.[2] […] HBV/HDV attachment to NTCP occurs via the myristoylated preS1 domain (myr-pre ...
# [2] = test system: NTCPwt and NTCP-Y146A/F274A; assay: myr-preS1-AX568 peptide binding assay, NTCPwt-HEK293 vs NTCP-Y146A/F274A-HEK293 cells; parameters: species or system human; settings: 5 to 160 nM, 37 °C, fluorescence, quadruplicate determinations, two-way ANOVA P < .01
# Method: T-Rex Flp-In human embryonic kidney (HEK293) cells (Thermo Fisher Scientific; RRID CVCL_0045) were grown in 1:1 Dulbecco’s modified Eagle medium (DMEM)/Ham’s F12 (Gibco). Both media were supplemented with 10% fetal calf serum (Gibco), L-glutamine 4 mM (Gibco), penicillin 100 U/mL (Carl Roth), and streptomycin 100 μg/mL (Carl Roth). Stably transfected T-Rex Flp-In HEK293 cells were selected with 100 μg/mL hygromycin (Carl Roth). Expression of the recombinant NTCP proteins was induced with 5 μg/mL tetracycline treatment for 72 hours. All cell lines were cultivated in 5% CO2 atmosphere at 37 °C. Cell lines were routinely checked for possible mycoplasma contamination. […]
# To study the HBV receptor function of NTCP, NTCPwt-HEK293 and NTCP-Y146A/F274A-HEK293 cells were incubated with the C-terminally Alexa 568 fluorophore-coupled myr-preS1 peptide (further referred to as myr-preS1-AX568), which consists of amino acids 2 to 48 of the large HBV genotype D3 surface protein (Biosynthesis). […] Myr-preS1-AX568 peptide binding was analyzed using Leica DMI6000 B inverted fluorescent microscope and LAS X software, or fluorescence was quantified with Spark multimode microplate reader (Spark Multimode Microplate, Tecan) (excitation: 570 nm, emission: 615 nm). […] Cell-associated radioactivity was quantified by liquid scintillation counting in a Packard Microplate Scintillation Counter TopCount NXT.
# [3] = test system: NTCP variants; settings: cited from earlier work
# Excerpt: This is exemplified by the genetic c.800G>A variant (rs2296651) that is frequent in East Asian populations and that leads to S267F mutation of NTCP inside the tunnel structure. […] More detailed analysis ... || Interaction site A is formed between F13 and F14 of myr-preS1 and the amino acids Q264, F283, F284, and L287 (TM8b, EL4, and TM9) as well as F18 (TM1) of NTCP; interaction sites B between F23 of myr-preS1 and V29 and V32 of NTCP; and interaction site C between K38, D39, H40, and W41 of myr-preS1 and A273, F274, and P275 (TM8b, EL4, and TM9) as well as Y146 (of EL2) of NTCP. For some of these amino acids, mutation studies confirmed their role for the myr-preS1 interaction. […] However, this domain also covers the surface of NTCP and not the tunnel structure. Within the published structures N87 forms hydrogen binds with E43 and K46 of the myr-preS1 string structure, while for the NTCP amino acid residues 84 to 86 no interactions with the myr-preS1 peptide could be detected. As mouse Ntcp with the corresponding residues 84HLTS87 has S ...
# [4] = target: T1, human Na+/taurocholate co-transporting …; assay: cell-based or functional assay
# [5] = target: T1, human Na+/taurocholate co-transporting …; assay: radioligand binding; competition: 5 nM [3H]preS1 on tetracycline-induced NTCP-HEK293 cells in 96-well plates, 10 minutes at 37 °C in DMEM, after preincubation with increasing concentrations of unlabelled peptide; cells without tetracycline as 0% control; liquid scintillation counting; 2 independent experiments; settings: one partner purified
molecule,measurement,setting,value
CN(CCOc1ccc(CC2SC(=O)NC2=O)cc1)c1ccccn1 (stereo not drawn) [rosiglitazone],"NTCP inhibition, selectivity virus binding vs bile acid transport",[1]; approved drugs,block NTCP in a nonselective manner
C=C(C)[C@@H]1CC[C@]2(C(=O)O)CC[C@]3(C)[C@H](CC[C@@H]4[C@@]5(C)CC[C@H](O)C(C)(C)[C@@H]5CC[C@]43C)[C@@H]12 [betulinic acid],"NTCP inhibition, selectivity virus binding vs bile acid transport",[1]; plant-derived compounds,block NTCP in a nonselective manner
CCC(C)CC(C)C(=O)OC1(C)C(=O)c2c(cc(O)c3c2CC(O)CC3C)C(C)(O)C1=O (stereo not drawn) [vanitaracin A],"NTCP inhibition, selectivity virus binding vs bile acid transport",[1]; plant-derived compounds,block NTCP in a nonselective manner
CC(C)c1nc(CN(C)C(=O)N[C@H](C(=O)N[C@@H](Cc2ccccc2)C[C@H](O)[C@H](Cc2ccccc2)NC(=O)OCc2cncs2)C(C)C)cs1 [ritonavir],"NTCP inhibition, selectivity virus binding vs bile acid transport",[1]; approved drugs,block NTCP in a nonselective manner
"myr-preS1-AX568: C-terminally Alexa 568 fluorophore-coupled myr-preS1 peptide, amino acids 2 to 48 of the large HBV genotype D3 surface protein (Myristoyl-GQNLSTSNPLGFFPDHQLDPAFRANTANPDWDFNPNKDTWPDANKVG-{Alexa 568}; also: myristoylated (myr-preS1))",binding to the Y146A/F274A NTCP mutant compared with NTCPwt,[2],much lower binding to the NTCP-Y146A/F274A mutant compared with NTCPwt
myr-preS1: myristoylated preS1 domain of the HBV large surface protein (Myristoyl-GQNLSTSNPLGFFPDHQLDPAFRANTANPDWDFNPNKDTWPDANKVG),myr-preS1 binding,[3]; 84 to 87 humanized construct of mouse Ntcp,did not only bind myr-preS1 but also supported infection
same,myr-preS1 binding,[3]; 158R NTCP variant found in OWM,resistant to myr-preS1 binding
same,myr-preS1 binding,"[3]; NTCP Q264A mutant, bile acid transport retained",significantly reduced myr-preS1 binding
same,myr-preS1 binding,"[3]; NTCP V272W mutant, intact bile acids transport",significantly reduced myr-preS1 binding
same,myr-preS1 binding,[3]; R158G mutation of OWM Ntcp,sufficient to support myr-preS1 binding
O=C1[C@H](CC[C@H](O)c2ccc(F)cc2)[C@@H](c2ccc(O)cc2)N1c1ccc(F)cc1 [ezetimibe],"NTCP inhibition, selectivity virus binding vs bile acid transport",[1]; approved drugs,block NTCP in a nonselective manner
CCCCCCCCCc1cc(OC(=O)c2c(CCCCCCCCC)cc(O)cc2OC2OC(CO)C(O)C(O)C2O)cc(O)c1C(=O)O (stereo not drawn) [exophillic acid],"NTCP inhibition, selectivity virus binding vs bile acid transport",[1]; plant-derived compounds,block NTCP in a nonselective manner
CC[C@H]1[C@@H](O)[C@@H]2[C@H](CC[C@]3(C)[C@@H]([C@H](C)CCC(=O)O)CC[C@@H]23)[C@@]2(C)CC[C@@H](O)C[C@@H]12 [obeticholic acid],"NTCP inhibition, selectivity virus binding vs bile acid transport",[1]; bile acid derivatives,block NTCP in a nonselective manner
CCCCC1=NC2(CCCC2)C(=O)N1Cc1ccc(-c2ccccc2-c2nnn[nH]2)cc1 [irbesartan],"NTCP inhibition, selectivity virus binding vs bile acid transport",[1]; approved drugs,block NTCP in a nonselective manner
B1,"inhibition of [3H]TCA (1 μM) transport via NTCP in NTCP-HEK293 cells, 10 minutes at 37 °C, IC50",[4],111 nM and 221 nM
same,IC50,[5],99 nM and 168 nM
B2,"inhibition of [3H]TCA (1 μM) transport via NTCP in NTCP-HEK293 cells, 10 minutes at 37 °C, IC50",[4],386 nM and 397 nM
same,IC50,[5],422 nM and 298 nM
